We go through two compounds from article PMC9863764, “Roles of Human Liver Cytochrome P450 Enzymes in Tenatoprazole Metabolism” (Pharmaceutics, 2022).

For one data set, the target named is T1, CYP2A6 (Homo sapiens, UniProt P11509).
T1 construct: made in house; host or cells: Escherichia coli (membrane fractions)
T1 sequence (P11509 1-494): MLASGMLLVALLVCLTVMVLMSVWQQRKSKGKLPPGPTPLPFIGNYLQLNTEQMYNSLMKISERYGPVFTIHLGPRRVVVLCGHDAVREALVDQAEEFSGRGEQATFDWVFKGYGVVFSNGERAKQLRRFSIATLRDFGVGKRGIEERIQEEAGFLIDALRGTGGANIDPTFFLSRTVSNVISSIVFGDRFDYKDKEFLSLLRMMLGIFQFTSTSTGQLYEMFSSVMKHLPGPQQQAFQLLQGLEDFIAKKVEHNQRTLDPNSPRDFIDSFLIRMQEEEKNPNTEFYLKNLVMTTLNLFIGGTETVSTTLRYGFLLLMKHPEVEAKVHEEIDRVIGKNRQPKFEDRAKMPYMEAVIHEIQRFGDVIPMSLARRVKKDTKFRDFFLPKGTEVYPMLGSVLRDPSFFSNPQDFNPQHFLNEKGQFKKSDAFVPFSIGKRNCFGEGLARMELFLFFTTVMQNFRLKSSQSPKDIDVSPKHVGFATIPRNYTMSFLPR
Nature of the data set: Tenatoprazole oxidation by recombinant CYP2A6. Format: in vitro ADME. The settings on record: substrate tenatoprazole 0.10 mM, 0.20 μM CYP2A6; no apparent formation. Here is the method: (§1) Pooled liver microsomes from human samples were obtained from ThermoFisher Scientific (Waltham, MA, USA). Recombinant human P450s were heterologously expressed in Escherichia coli with a pCW vector containing human P450 cDNA (CYP 3A4, 2C9, 2C19, 1A2, 1B1, 2E1, 2D6, and 2A6) and rat NADPH-P450 reductase (CPR). Membrane fractions expressing both P450 and CPR of E. coli were prepared as described previously and were used for the catalytic activity assays.
(§2) The reaction mixture included 0.20 μM P450, 0.40 μM CPR, and tenatoprazole (0.10 mM) in 0.25 mL of 0.10 M potassium phosphate buffer (pH 7.4). The reaction was started by adding NGS and the incubation was continued for the indicated time at 37 °C. Incubation was then stopped by adding ice-chilled ethyl acetate (0.50 mL) and omeprazole (IS) was added to a final concentration of 20 μM. The mixtures were vortexed for 2 min, centrifuged at 1000× g for 20 min, and then the organic layer was taken for drying under nitrogen gas stream. The residues were dissolved in 180 μL of HPLC mobile phase and 30 μL was injected onto a Gemini C18 column (4.6 × 150 mm, 5 μm; Phenomenex, Torrance, CA, USA). The products formed were analyzed by HPLC at A302. The HPLC profile of the authentic chemicals (i.e., tenatoprazole, tenatoprazole sulfide, and their metabolites) were used to identify the major metabolites of tenatoprazole and tenatoprazole sulfide produced by the recombinant P450s.
(§3) Figure S6. HPLC analyses of the products derived from the oxidation of tenatoprazole catalyzed by recombinant human P450s. The reaction mixture included 0.20 μM P450, 0.40 μM CPR, and 0.10 mM tenatoprazole in 0.25 mL of potassium phosphate buffer (0.10 M, pH 7.4). The reaction was started by adding an NGS at 37 °C for 60 min. (A) CYP1A2; (B) CYP1B1; (C) CYP2A6; (D) CYP2C9; (E) CYP2D6; (F) CYP2E1. The arrows with solid and broken lines indicate the retention times of 5’-OH tenatoprazole (6.6 min) and 5’-OH tenatoprazole sulfide (8.4 min), respectively.
(§4) (1 picture or pasted object on this page, not shown here)

For a further data set, the target named is T2, CYP1A2 (Homo sapiens, UniProt P05177).
T2 construct: made in house; host or cells: Escherichia coli (membrane fractions)
T2 sequence (P05177 1-516): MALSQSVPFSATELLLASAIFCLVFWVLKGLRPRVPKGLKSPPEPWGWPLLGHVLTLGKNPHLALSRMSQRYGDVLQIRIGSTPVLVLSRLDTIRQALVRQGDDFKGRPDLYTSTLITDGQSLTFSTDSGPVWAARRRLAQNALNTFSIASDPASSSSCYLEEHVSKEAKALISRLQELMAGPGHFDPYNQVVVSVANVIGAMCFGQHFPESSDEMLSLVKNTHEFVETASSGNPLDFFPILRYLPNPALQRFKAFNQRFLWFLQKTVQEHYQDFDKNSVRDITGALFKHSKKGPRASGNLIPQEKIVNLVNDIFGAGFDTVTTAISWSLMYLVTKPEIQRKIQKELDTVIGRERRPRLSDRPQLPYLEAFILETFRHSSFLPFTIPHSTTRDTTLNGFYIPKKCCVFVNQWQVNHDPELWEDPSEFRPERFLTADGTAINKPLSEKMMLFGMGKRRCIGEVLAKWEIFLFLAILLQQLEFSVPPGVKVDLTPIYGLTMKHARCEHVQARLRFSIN
Nature of the data set: Tenatoprazole oxidation by recombinant CYP1A2. The settings on record: substrate tenatoprazole 0.10 mM, 0.20 μM CYP1A2; no apparent formation. Type of data set: in vitro ADME. As for the experimental part:
as §1, §2, §3, §4

Bounds are passed on as bounds.

Consider `COc1ccc2[nH]c([S+]([O-])Cc3ncc(CO)c(OC)c3C)nc2n1` (stereo not shown) [5′-OH tenatoprazole, 5′-hydroxy tenatoprazole], for which the “formation rate of metabolite” value on CYP2A6 and at CYP1A2 was < 0.05 nmol product/min/nmol P450 throughout.
As to `COc1ccc2[nH]c(S(=O)(=O)Cc3ncc(C)c(OC)c3C)nc2n1` [tenatoprazole sulfone], the “formation rate of metabolite” value at CYP2A6 and at CYP1A2 was < 0.05 nmol product/min/nmol P450 throughout.
